According to the supplement of paper PMC5908809:

Key:
[1] = test system: normal primary NK cells, pool 1 (3 donors) (IL-2 2.5 ng/mL); experiment: percent inhibition of viability; higher = more inhibition; settings: 72 h
NK-92 (IL-2 2.5 ng/mL) [2] = experiment: as above; settings: 72 h
NKL (IL-2 2.5 ng/mL) [3] = experiment: as above; settings: 72 h
[4] = test system: normal primary NK cells, pool 3 (3 donors) (IL-2 2.5 ng/mL); experiment: as above; settings: 72 h
KHYG-1 (IL-2 2.5 ng/mL) [5] = experiment: as above; settings: 72 h
YT (IL-2 2.5 ng/mL) [6] = experiment: as above; settings: 72 h
IMC-1 (IL-2 20 ng/mL) [7] = experiment: as above; settings: 72 h
DERL-7 (IL-2 2.5 ng/mL) [8] = experiment: as above; settings: 72 h
SNK-6 (IL-2 2.5 ng/mL) [9] = experiment: as above; settings: 72 h
[10] = test system: normal primary NK cells, pool 1 (3 donors), resting (IL-2 0 ng/mL); experiment: as above; settings: 72 h
[11] = test system: normal primary NK cells, pool 2 (3 donors) (IL-2 2.5 ng/mL); experiment: as above; settings: 72 h
KAI3 (IL-2 2.5 ng/mL) [12] = experiment: as above; settings: 72 h
NK-YS (IL-2 2.5 ng/mL) [13] = experiment: as above; settings: 72 h
[14] = test system: normal primary NK cells, pool 1 (3 donors) (IL-2 2.5 ng/mL); experiment: drug sensitivity score (DSS) (DSS units); higher = more sensitive; extreme values may be limits of the assay; settings: 72 h
NK-92 (IL-2 2.5 ng/mL) [15] = experiment: as above; settings: 72 h
NKL (IL-2 2.5 ng/mL) [16] = experiment: as above; settings: 72 h
[17] = test system: normal primary NK cells, pool 3 (3 donors) (IL-2 2.5 ng/mL); experiment: as above; settings: 72 h
KHYG-1 (IL-2 2.5 ng/mL) [18] = experiment: as above; settings: 72 h
YT (IL-2 2.5 ng/mL) [19] = experiment: as above; settings: 72 h
IMC-1 (IL-2 20 ng/mL) [20] = experiment: as above; settings: 72 h
DERL-7 (IL-2 2.5 ng/mL) [21] = experiment: as above; settings: 72 h
SNK-6 (IL-2 2.5 ng/mL) [22] = experiment: as above; settings: 72 h
[23] = test system: normal primary NK cells, pool 1 (3 donors), resting (IL-2 0 ng/mL); experiment: as above; settings: 72 h
[24] = test system: normal primary NK cells, pool 2 (3 donors) (IL-2 2.5 ng/mL); experiment: as above; settings: 72 h
KAI3 (IL-2 2.5 ng/mL) [25] = experiment: as above; settings: 72 h
NK-YS (IL-2 2.5 ng/mL) [26] = experiment: as above; settings: 72 h
[27] = test system: normal NK cells expanded with K562-aAPC; experiment: percent inhibition of viability; higher = more inhibition; settings: 72 h, IL-2 2.5 ng/mL
Procedure: (§1)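 Drug sensitivity and resistance testing on K562-aAPC-expanded normal NK cells: 5 concentrations (10-fold steps over a 10,000-fold range), 72 h at 37 °C, viability by CellTiter-Glo normalised to DMSO and benzethonium chloride controls; DSS from the fitted curve.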

[28] = test system: normal NK cells expanded with K562-aAPC; experiment: drug sensitivity score (DSS) (DSS units); higher = more sensitive; extreme values may be limits of the assay; settings: 72 h; IL-2 2.5 ng/mL
Procedure: as §1

CN(C)C1CCN(C(=O)c2ccc(NC(=O)Nc3ccc(-c4nc(N5CCOCC5)nc(N5CCOCC5)n4)cc3)cc2)CC1 [Gedatolisib] (max concentration tested 1000 nM)
percent inhibition of viability [%]
Settings | 0.1 nM | 1 nM | 10 nM | 100 nM | 1000 nM
DERL-7 (IL-2 2.5 ng/mL) [8] | -6.47 | 3.75 | 20.5 | 81.6 | 96.8
IMC-1 (IL-2 20 ng/mL) [7] | 1.19 | 4.03 | -1.18 | -2.3 | 34.8
KAI3 (IL-2 2.5 ng/mL) [12] | -4.82 | -2.02 | 7.1 | 34.4 | 65.2
KHYG-1 (IL-2 2.5 ng/mL) [5] | 3.45 | 0.68 | 6.16 | 4.39 | 40.9
NK-92 (IL-2 2.5 ng/mL) [2] | -8.45 | -9.3 | 7.7 | -10.2 | 15.7
NK-YS (IL-2 2.5 ng/mL) [13] | 1.81 | -3.05 | 18.4 | 56.5 | 75.3
NKL (IL-2 2.5 ng/mL) [3] | -11 | -10.7 | 19.5 | 58.6 | 62
SNK-6 (IL-2 2.5 ng/mL) [9] | 13 | 9.94 | 17.4 | 15.5 | 55.6
YT (IL-2 2.5 ng/mL) [6] | -1.35 | -2.24 | 7.23 | 19.8 | 61.7
[1] | 4.43 | -5.19 | 5.53 | 2.83 | 24.4
[4] | -10.1 | -4.3 | -0.54 | 0.15 | 27.5
[10] | 4.88 | -18.3 | 3.45 | -12.4 | 12.5
[11] | -16.6 | -2.18 | -0.9 | 7.29 | 33.2
[27] | -0.13 | 7.4 | 1.57 | 11 | 38

Settings | drug sensitivity score
DERL-7 (IL-2 2.5 ng/mL) [21] | 17.5
IMC-1 (IL-2 20 ng/mL) [20] | 1.45
KAI3 (IL-2 2.5 ng/mL) [25] | 7.65
KHYG-1 (IL-2 2.5 ng/mL) [18] | 2.77
NK-92 (IL-2 2.5 ng/mL) [15] | 0.11
NK-YS (IL-2 2.5 ng/mL) [26] | 12.7
NKL (IL-2 2.5 ng/mL) [16] | 13.9
SNK-6 (IL-2 2.5 ng/mL) [22] | 6.43
YT (IL-2 2.5 ng/mL) [19] | 5.75
[14] | 1.34
[17] | 1.15
[23] | 0.01
[24] | 2.68
[28] | 3.49

C=CC(=O)N1CCC[C@@H](n2nc(-c3ccc(Oc4ccccc4)cc3)c3c(N)ncnc32)C1 [Ibrutinib] (max concentration tested 1000 nM)
percent inhibition of viability [%]
Settings | 0.1 nM | 1 nM | 10 nM | 100 nM | 1000 nM
DERL-7 (IL-2 2.5 ng/mL) [8] | 2.78 | 2.44 | 6.17 | 7.83 | 34.1
IMC-1 (IL-2 20 ng/mL) [7] | -4.48 | -0.1 | -1.11 | -2.87 | -8.75
KAI3 (IL-2 2.5 ng/mL) [12] | 1.69 | 2.89 | 0.25 | 8.29 | 20.5
KHYG-1 (IL-2 2.5 ng/mL) [5] | -6.77 | -1.35 | -1.82 | 0.67 | 8.69
NK-92 (IL-2 2.5 ng/mL) [2] | -15.8 | -16.1 | -8.18 | 0.25 | 15.7
NK-YS (IL-2 2.5 ng/mL) [13] | -1.09 | -1.95 | -0.26 | 0.88 | 15.6
NKL (IL-2 2.5 ng/mL) [3] | -5.52 | 0.29 | 10.1 | 24.2 | 30
SNK-6 (IL-2 2.5 ng/mL) [9] | -11.4 | 9.91 | -7.4 | 1.24 | 8.78
YT (IL-2 2.5 ng/mL) [6] | -2.79 | -1.68 | -0.35 | 13.8 | 31.3
[1] | -0.62 | 9.62 | 12.7 | 12.1 | 21
[4] | -5.07 | 4.6 | -2.73 | -10.7 | -14
[10] | -3.67 | 8.12 | 16.8 | 10 | 22.4
[11] | -6.12 | 0.44 | 7.05 | -9.76 | 10.5
[27] | -2.6 | -5.62 | -10 | -0.99 | -0.93

Settings | drug sensitivity score
DERL-7 (IL-2 2.5 ng/mL) [21] | 2.68
IMC-1 (IL-2 20 ng/mL) [20] | 0
KAI3 (IL-2 2.5 ng/mL) [25] | 1.54
KHYG-1 (IL-2 2.5 ng/mL) [18] | 0
NK-92 (IL-2 2.5 ng/mL) [15] | 0.3
NK-YS (IL-2 2.5 ng/mL) [26] | 0.35
NKL (IL-2 2.5 ng/mL) [16] | 4.8
SNK-6 (IL-2 2.5 ng/mL) [22] | 0
YT (IL-2 2.5 ng/mL) [19] | 3.17
[14] | 2.44
[17] | 0
[23] | 2.74
[24] | 0
[28] | 0
